Experimental findings from paper PMC4830886, “Extended evaluation on the ES-D3 cell differentiation assay combined with the BeWo transport model, to predict relative developmental toxicity of triazole compounds” (Archives of Toxicology, 2015) are described below.

One series deals with BeWo b30 cell layers. The experiment in a line: in vitro BeWo transport model (placental transfer). Particulars: BeWo cells, 50 μM (25 nmol) apical, at 90 min. The procedure:
(§1) To study placental transfer of test compounds, BeWo transport experiments were performed as described previously (Li et al. [2013]). Briefly, BeWo b30 cells (passages 27–45) were cultured in DMEM (Zwijndrecht, The Netherlands), supplemented with 10 % (v/v) heat-inactivated FCS (HyClone-Perbio, Etten-Leur, The Netherlands), 10,000 U/ml penicillin, 10 mg/ml streptomycin and 2 mM L-glutamine. The cells were seeded at a density of 1 × 10^5 cells/cm^2 on transwell® polycarbonate membranes (12 mm diameter, 0.4 μm pore size) (VWR International BV, Amsterdam, The Netherlands) coated with human placental collagen. The medium (0.5-ml apical compartment, 1.5-ml basolateral compartment) was replaced daily. At day 6 postseeding, the BeWo b30 cell layers were used for transport experiments. The barrier-forming capacity of the BeWo cell layers was evaluated by measuring the transepithelial electrical resistance (TEER) of the cell monolayer using a Millicell ERS-2 Volt-Ohm Meter (Millipore, USA) at day 6 postseeding as described previously (Li et al. [2013]). Only the cell layers showing TEER values between 80 and 100 Ω cm^2 were used for transport experiments.
(§2) Transport experiments were initiated by adding 0.5 ml of transport buffer Hank’s balanced salt solution (HBSS, Invitrogen, Breda, The Netherlands) containing the test compound, being 0594, 0595, 0596, 0599, 0600 and 0618, dissolved in DMSO (final solvent concentration 0.5 % DMSO), at concentration of 50 μM, to the apical compartment and 1.5 ml transport buffer to the basolateral compartment. Subsequently, the plate was incubated in a humidified atmosphere with 5 % CO2 at 37 °C. After 15, 30, 60 and 90 min, a sample of 0.2 ml was taken from the basolateral compartment and replaced by an equal volume of transport buffer. At the end of each experiment, a 0.2-ml sample was also taken from the apical compartment. Subsequently, the filters with the BeWo b30 cell layers were washed three times with PBS, cut out of the insert, dissolved in 0.25 ml 65 % (v/v) methanol and sonificated for 15 min in a Bandelin Sonorex RK100 (Berlin, Germany) in order to determine the amount of compound accumulated in the cells. After each experiment, mass balance calculations were performed. In each transport study, amoxicillin and antipyrine were included as control and reference compounds. Amoxicillin transport was included to assess for monolayer integrity since it is a compound known to be transported only to a limited extent across the placenta, whereas antipyrine was included as a control for optimal transport and a reference compound to enable calculation of relative transport rates (Li et al. [2013]). The transport of the six test compounds, as well as the reference compounds amoxicillin and antipyrine, through the permeable membrane of the transwell filter in the absence of BeWo cells was determined as well. […] For each test compound, three independent experiments were performed, with three technical replicates per experiment.
(§3) Samples were analyzed using high-performance liquid chromatography (HPLC) to quantify the amount of test compound in order to determine the transport rate and to perform mass balance calculations. The HPLC system used consisted of a Waters (Milford, MA) 600 controller and a 600 pump, equipped with a photodiode array detector set to record absorption of wavelengths between 200 and 400 nm. A Waters 717 plus autosampler was used for sample injection. The temperature of the autosampler was kept at 7 °C.
(§4) For analysis of all compounds, 50 μl sample was injected to a C18 5 μm reverse-phase column (150 mm × 4.6 mm I.D.) with a guard column (7.5 mm × 4.6 mm I.D.) (Alltech, Bergen op Zoom, The Netherlands). The mobile phase used for analysis of all the test compounds consisted of (A) 0.1 % trifluoroacetic acid in nanopure water and (B) HPLC-grade acetonitrile. Elution was at a flow rate of 0.8 ml/min, starting at 22 % B with a linear increase to 100 % B in 8 min.

The nature of series [1]: in vitro BeWo transport model (placental transfer). As to conditions: human. The procedure:
as §1, §2, §3, §4

Series [2] is described as follows: WST-1 cytotoxicity assay with ES-D3 cells. Format: cell-based. As to conditions: mouse, ES-D3 embryonic stem cells, WST-1, 5-day exposure, read-out: decline in cell viability. The procedure: The murine ES-D3 cell line was purchased from ATCC (Wesel, Germany). The cells were maintained in polystyrene cell culture flasks (Corning, The Netherlands) in Dulbecco’s modified Eagle’s medium (DMEM, Invitrogen, Breda, The Netherlands), supplemented with 20 % heat-inactivated fetal calf serum (Lonza, BioWhittaker, Verviers, Belgium), 50 U/ml penicillin with 50 μg/ml streptomycin (Invitrogen), 2 mM L-glutamine (Invitrogen), 0.1 mM β-mercaptoethanol (Sigma-Aldrich) and 1 % (v/v) nonessential amino acids (Invitrogen), at 37 °C and 5 % CO2 in a humidified atmosphere. Cells were kept undifferentiated with 1000 U/ml murine leukemia inhibiting factor (LIF) (Sigma-Aldrich) and subcultured every 2–3 days using nonenzymatic cell dissociation solution (Sigma-Aldrich) to detach the cells.
To determine cytotoxicity of the compounds, a WST-1 assay was performed. This assay measures the influence of test compounds on the formation of the water-soluble formazan reaction product from WST-1 by mitochondrial succinate-tetrazolium reductase enzymes. The cytotoxicity of a test compound inversely correlates with the absorbance of the produced formazan quantified spectrophotometrically as described previously (Reitsma et al. [2013]). ES-D3 cells were exposed to test compounds for the duration of 1 or 5 days as described before (Li et al. [2015]). Briefly, cells were seeded in 96-well plates (Greiner bio-one) at concentrations of 20 × 10^4 cells/ml (1-day exposure) or 1 × 10^4 cells/ml (5-day exposure) in 100 μl culture medium in the absence of LIF and incubated for 1 day to allow cell adherence. Then, the cells were exposed to the test compounds at concentrations up to 60 μM (final solvent concentration 0.2 % DMSO) and subsequently cultured for 1 or 5 days at 37 °C and 5 % CO2 in a humidified atmosphere. Solvent DMSO (0.2 %) was used as a negative control and 1 % Triton X-100 served as a positive control in all cytotoxicity assays. After incubation of 1 or 5 days, 20 μl WST-1 reagent (Roche, Woerden, The Netherlands) was added to each well and the plates were incubated for another 3 h. Then, absorbance was measured at 450 nm using a SpectraMax M2 (Molecular Devices, Sunnyvale, USA). Three wells were used per treatment in each independent experiment. Three independent experiments were done for each compound. The cell viability was expressed as % of the solvent control, with the solvent control set at 100 % viability. Reproducible results were obtained from the treatments of negative and positive controls in all of the cytotoxicity assays.

What is called Papp is the rate of passage across a membrane or cell layer, normalised by area and donor concentration. Read a low Papp as slow passage.

For `CC(c1nc(-c2ccc(C#N)cc2)cs1)C(O)(Cn1cncn1)c1ccc(F)cc1` (stereo not drawn) [compound 0596, 4-{2-[2-(4-Fluoro-phenyl)-2-hydroxy-1-methyl-3-[1,2,4]triazol-1-yl-propyl]-thiazol-4-yl}-benzonitrile], in the series with BeWo b30 cell layers, the “Intracellular accumulation (% of added amount)” value is recorded as 12 % of added amount. This molecule also showed an apparent permeability (Papp) at 30 min, 50 μM in series [1] of 24.4 ± 2.7 ×10⁻⁶ cm/s. In series [2], the cytotoxicity at 5 days, 60 µM stood at 70%.

As for `CC1CC(C)OC(Cn2cncn2)(c2ccc(Oc3ccc(Cl)cc3)cc2Cl)O1` (stereo not drawn) [compound 0600, 1-[[2-[2-Chloro-4-(4-chlorophenoxy)phenyl]-4,6-dimethyl-1,3-dioxan-2-yl]methyl]-1,2,4-triazole], the “Intracellular accumulation (% of added amount)” value in the series with BeWo b30 cell layers is reported as 66 % of added amount. In addition, in series [1], the Papp at 30 min, 50 μM is 7.9 ± 1 ×10⁻⁶ cm/s. In series [2], the cytotoxicity at 5 days, 60 µM came out at 20%.

For `OC(c1cccnc1)c1c(-c2ccc(F)cc2F)noc1-c1ccc(Cl)cc1F` (stereo not drawn) [compound 0594, [5-(4-Chloro-2-fluoro-phenyl)-3-(2,4-difluoro-phenyl)-isoxazol-4-yl]-pyridin-3-yl-methanol], in the series with BeWo b30 cell layers, the “Intracellular accumulation (% of added amount)” value is given as 24 % of added amount. Besides, in series [1], the Papp at 30 min, 50 μM was 11.5 ± 2.6 ×10⁻⁶ cm/s. The cytotoxicity at 5 days, 60 µM in series [2] came to 30%.

Take `CC(c1nc(-c2ccc(C#N)cc2)cs1)C(O)(Cn1ccnc1)c1ccc(F)cc1` (stereo not drawn) [compound 0599, 4-[2-[2-(4-Fluorophenyl)-2-hydroxy-3-imidazol-1-yl-1-methyl-propyl]thiazol-4-yl]benzonitrile]: the “Intracellular accumulation (% of added amount)” value in the series with BeWo b30 cell layers is reported as 22 % of added amount. Moreover, the Papp at 30 min, 50 μM in series [1] came to 18.4 ± 1.1 ×10⁻⁶ cm/s. Moreover, the cytotoxicity at 5 days, 60 µM in series [2] came to 80%.

On to `OC(c1cccnc1)c1c(-c2ccc(F)cc2F)csc1-c1ccc(F)cc1F` (stereo not drawn) [compound 0595, [2,4-Bis-(2,4-difluoro-phenyl)-thiophen-3-yl]-pyridin-3-yl-methanol], for which the “Intracellular accumulation (% of added amount)” value in the series with BeWo b30 cell layers is reported as 79 % of added amount. In series [1], this molecule gave an apparent permeability coefficient (Papp) at 30 min, 50 μM of 3 ± 0.4 ×10⁻⁶ cm/s. Further, in series [2], the cytotoxicity at 5 days, 60 µM worked out at 20%.
